These molecules were tested against Protein kinase C alpha type (Homo sapiens, UniProt P17252) (assay: Binding affinity (Ki) towards Protein kinase C).

Row | Ki | SMILES
1 | 5.3 µM | CCCCCCCCCCCCCC(=O)O[C@H]1CC(=O)O[C@@H]1CO
2 | 2.5 µM | CCCCCCCCCCCCCC(=O)C1CC(=O)O[C@H]1CO (stereo partly specified)
3 | 7.6 µM | CCCCCCCCCCCC[C@@H]1C(=O)O[C@]2(CO)CC(=O)O[C@H]12
4 | 8.7 µM | CCCCCCCCCCCCCCCCCCC(=O)O[C@@H]1CC(=O)O[C@H]1CO
5 | 22 µM | CCCCCCCCCCC[C@H]1C(=O)O[C@@]2(CO)COC(=O)[C@@H]12
6 | 4.1 µM | CCCCCCCCCCC(=O)O[C@@H]1CC(=O)O[C@H]1CO
7 | 300 µM | CCCCCCCCCCCCCC(=O)O[C@@H]1CC(=O)O[C@@H]1CO
8 | 27.8 µM | CCCCCCCCCCC[C@@H]1C(=O)O[C@H]2[C@@H]1C(=O)O[C@@H]2CO
9 | 31 µM | CCCCCCCCCCCCCC(=O)O[C@H]1CC(=O)O[C@H]1CO
10 | 1.3 µM | CCCCCCCCCCCCCC(=O)OC[C@H](CO)OC(C)=O
11 | 187 µM | CCCCCCC(=O)O[C@@H]1CC(=O)O[C@H]1CO
12 | 7.7 µM | CCCCCCCCCCC[C@@H]1C(=O)O[C@]2(CO)COC(=O)[C@H]12
13 | > 1700 µM | CC(=O)O[C@@H]1CC(=O)O[C@H]1CO
14 | 75.3 µM | CCCCCCCCCCCCC1C(=O)O[C@@H](CO)[C@@]12CCC(=O)O2 (stereo partly specified)
15 | 13.6 µM | CCCCCCCCCCC/C=C1/C(=O)O[C@@H](CO)[C@@]12CCC(=O)O2

Row | SMILES | Ki
16 | CO[C@@H](CC[C@H](C)[C@H]1O[C@@]23CC(OC(=O)C[C@H]([C@@H](C)O)OC(=O)C[C@](O)(O2)[C@H](C)CC3(C)C)[C@@H]1C)c1cccc(O)c1 | 0.02 µM

From ChEMBL document CHEMBL1127649, “Protein kinase C. Modeling of the binding site and prediction of binding constants” (J Med Chem, 1994)
